Results on 14 molecules are retold here after US8877889B2, “Tumor cell-killing peptides” (Industry-Academic Cooperation Foundation, Chosun University, priority 2009, dated 2014).

What all share (type): cell-based
For experiment [1], the system named is HeLa cells. The experiment is described as follows: Cell death after transfection of Noxa constructs, counting EGFP-positive dead cells. To be noted: for cell death-inducing activity of Noxa point mutants: 20 hours after transfection (FIG. 3B); for cell death-inducing activity of leucine substitution mutants 4Lmt, 5Lmt: HeLa cells transfected (FIG. 8A); for cell death after over-expression: within 11 hrs after transfection (FIG. 1D). The method, then:
(D) HeLa cells were transfected with deletion mutants of Noxa. At 11 hrs, 24 hrs, and 36 hrs after transfection, cell death was determined by counting EGFP-positive dead cells with morphological changes using the fluorescent microscope.
(B) HeLa cells were transfected with WT or with the indicated Noxa mutants. 20 hours after transfection cell death was determined by counting the EGFP-positive dead and survived cells under the fluorescent microscope.
(A) HeLa cells were transfected with either WT Noxa, 4Lmt (L42A, L43A, L45A, L49A), or 5Lmt (L29A, L42A, L43A, L45A, L49A) constructs. At the indicated times after transfection, cell death was determined by counting the EGFP-positive dead cells with morphological changes under the fluorescent microscope.
HeLa cells were transfected with EGFP-Noxa WT and 41-54 in combination with Bcl-2 expression plasmid or in the presence of zVAD-fmk (25 μM). 18 hours after transfection, cell death was determined by counting EGFP-positive dead cells with morphological changes using the fluorescent microscope. Data represent an average±SD of three experiments each with 200 total cells counted.
The percentage of cell death was determined by counting EGFP-positive dead cells with morphology using the fluorescent microscope. Minimally, 300 cells in three separate fields were counted for each measurement.

The test system of experiment [2] is HeLa cells. Kind of experiment: Mitochondrial localization of Noxa mutants, confocal microscopy. As to conditions: confocal microscopic image analysis. From the text:
(B) HeLa cells were co-transfected with the pDsRed2-Mito and either Noxa 4Lmt or Noxa 5Lmt. 18 hrs after transfection the mitochondrial morphology was observed under the laser confocal microscope.

The subject of experiment [3] is HeLa cells. The experiment is described as follows: Peptide-induced cell death, counting dead and survived cells under the light microscope. As to conditions: peptides 10 μM, 20 μM, 30 μM, 10 minutes after treatment (FIG. 1B, 3A). The method, then: (B) HeLa cells were treated with DMSO or the indicated peptides in increasing doses (10 μM, 20 μM, and 30 μM). % of cell death was determined at 10 minutes after treatment by counting the dead cells and survived cells under the light microscope.
(E) HeLa cells were transfected with substitution mutants of MTD peptide.
HeLa cells were treated with DMSO or with the indicated peptides at increasing doses (10 μM, 20 μM, or 30 μM). % cell death was determined 10 minutes after treatment by counting the dead cells and survived cells (300 cells per sample) under the light microscope.
(D) HeLa cells were treated with indicated amounts of MTD peptide for 1 hour, 2 hours, or 5 hours. % cell death was calculated by counting the dead cells and survived cells (200 to 500 cells per sample) under the light microscope. Data represent the means±SD of three independent experiments.

The test system of another experiment is NCI-H460 cells. Kind of experiment: Peptide-induced cell death in NCI-H460 cells. As to conditions: 5 μM, 2 or 5 hours (FIG. 3C). The method, then:
(C) NCI-H460 cells were treated with indicated peptides for 2 hours or 5 hours. % cell death was determined as described above.

Experiment [4] relates to HeLa cells. Kind of experiment: Measurement of intracellular calcium with Fluo-4-AM. To be noted: 3 μM peptide. The method, then: (A-C) HeLa cells were loaded with 3 μM Fluo-4-AM for 30 minutes and then treated with 3 μM of indicated peptides (A: MTD, B: MTDmt3, C: MTDmt5). Fluorescence images and bright-field images were obtained with the laser scanning confocal microscope at 5-second intervals for 5 minutes. Relative fluorescence intensities (F/F0) at two region-of-interests (ROI 1 and 2) were measured at 5-second intervals for 5 minutes.
(E-G) HeLa cells were pretreated in calcium free KRB media alone (E), in KRB media with 10 μM 2-APB and 20 μM Ryanodine (F), or in KRB media with freshly made 30 μM CsA (G) for 2 hours. HeLa cells were then loaded with 3 μM Fluo-4-AM for 30 minutes and treated with 3 μM of MTD peptide. Images were obtained with the laser scanning confocal microscope at 5-second intervals for 5 minutes. Relative fluorescence intensities (F/F0) at two region-of-interests (ROI 1 and 2) were measured at 5-second intervals for 5 minutes.
For Ca^2+ measurements in the cytosol, HeLa cells were cultured in an Lab-Tek™ Chamber glass slide and loaded with Fluo-4-AM (Fluo-4-acetoxymethyl ester) at a final concentration of 3 μM for 30 minutes, followed by washing with PBS (Phosphate buffered saline) at pH 7.4 and the addition of fresh Ca^2+-free Krebs-ringer modified buffer (KRB: 125 mM NaCl, 5 mM KCl, 1 mM Na3PO4, 1 mM MgSO4, 5.5 mM glucose, and 20 mM HEPES, pH 7.4, at 37° C.) containing the indicated peptides. Time-lapse images were obtained at 488 nm excitation with the Argon laser scanning confocal microscope (Leica TCS SP5 Microsystems, Mannheim, Germany) at 10-second intervals for 5 minutes to visualize Fluo-4-AM.
A general note: A change in cytosolic calcium serves as a functional read-out for many receptors and channels.

The test system of experiment [5] is CT26 mouse colon carcinoma cells. Kind of experiment: Tumor cell killing activity, bright field images. As to conditions: 10 μM peptide (FIG. 9A). On the procedure: (A) CT26 cells were treated with 10 μM MTD, TU1:MTD, TU2:MTD, or TU3:MTD peptides, and bright field images for indicated peptides were obtained at indicated time points. Representative images of at least 3 individual experiments were presented.

The subject of experiment [6] is HeLa cells. The experiment is described as follows: Caspase activation, western blot of cell lysates. As to conditions: 5 μM peptide. On the procedure:
(E) After treatment with the MTD peptide, MTDmt4, or MTDmt5 (5 μM) in HeLa cells, cell lysates were prepared at indicated times. Equal amounts of proteins were subjected to the SDS-PAGE and blotted onto PVDF membrane. After blocked with 5% nonfat milk in TBST (10 mM Tris-HCl, pH 7.5, 100 mM NaCl and 0.1% Tween-20), the membrane was probed with anti-caspase-3 (SantaCruz Biotechnology, Inc., Santa Cruz, Calif., USA), anti-caspase-8 (Cell signaling technology, Beverly, Mass., USA), anti-caspase-9 (SantaCruz Biotechnology, Inc., Santa Cruz, Calif.), anti-XIAP (Upstate Biotechnology, Dundee, United Kingdom), or anti-Bid (home-made) antibodies. Anti-actin antibody (Chemicon International, Inc., Temecula, Calif., USA) was used as equal loading control.
On the technique in general: Immunoblotting shows a protein as a band on a membrane.

In experiment [7] the test system is HeLa cells. The experiment is described as follows: Live cell images and annexin V / SYTOX Green staining of dying cells. As to conditions: MTD peptide 10 μM or TRAIL 100 ng/ml (FIG. 2A, 7A, 7B). The method, then:
(A) HeLa cells were treated with MTD peptides (10 μM), or TRAIL (100 ng/ml). Images were taken at the indicated times (upper panel). Jurkat cells were treated with MTD peptide (10 μM) for 10 minutes, cells were processed for TEM. Images were obtained with 4,000× magnification (lower panel). N: nucleus, M: mitochondrion.
(D) HeLa cells were treated with the MTD (5 μM) peptide with or without the pretreatment of 10 μM BAPTA-AM for 2 hours. Live cell images were serially acquired at 10-second intervals for 10 minutes and shown at the indicated times.
(A) HeLa cells were stained with FITC-conjugated Annexin V antibody at 10 minutes after DMSO or MTD treatment. Images were obtained under the confocal microscope.
(B) HeLa cells were stained with SYTOX Green 10 minutes after DMSO or MTD treatment. Images were obtained using confocal microscope.

“Also recorded” adds a separate entry of the source.

Consider “L49A (MPGKKARKNAQPSPARAPAELEVECATQLRRFGDKLNFRQKLLNLISKAFCSGT; UniProt Q13794 1-54, looked up, variant L49A)”, for which the “cell death-inducing activity of Noxa point mutants” value in the experiment with HeLa cells [1] (HeLa cells) is given as “remarkably reduced the cell death-inducing activities”. Moreover, the mitochondrial localization result in the experiment with HeLa cells [2] is given as “maintained the typical mitochondrial localization of Noxa”.

“RRRRRRRRGRQKLLNAASKLF (PTD-MTDmt3 fusion peptide derived from Homo sapiens)”: in the experiment on HeLa cells [3], the “cell death-inducing activity (% of cell death)” value is “completely lost their cell death-inducing activities; also recorded: no cell death”. Besides, the “susceptibility of cells to peptide” value in the experiment with NCI-H460 cells is listed as “not”. Besides, in the experiment with HeLa cells [4], the “cytosolic calcium level change” value is listed as “did not induce changes in the cytosolic calcium level”. Take “L42A (MPGKKARKNAQPSPARAPAELEVECATQLRRFGDKLNFRQKALNLISKLFCSGT; UniProt Q13794 1-54, looked up, variant L42A)”: the mitochondrial localization entry with HeLa cells [2] is listed as “maintained the typical mitochondrial localization of Noxa”. Turning to CNGRCGGKLLNLISKLF [TU1:MTD], the “tumor cell killing activity” value in experiment [5] is “no or little killing activity”.

“L45A (MPGKKARKNAQPSPARAPAELEVECATQLRRFGDKLNFRQKLLNAISKLFCSGT; UniProt Q13794 1-54, looked up, variant L45A)”: the “cell death-inducing activity of Noxa point mutants” value with HeLa cells [1] (HeLa cells) is on record as “remarkably reduced the cell death-inducing activities”. Moreover, the mitochondrial localization result in the experiment on HeLa cells [2] is “maintained the typical mitochondrial localization of Noxa”. With “5Lmt: Noxa mutant with L29A, L42A, L43A, L45A and L49A (MPGKKARKNAQPSPARAPAELEVECATQARRFGDKLNFRQKAANAISKAFCSGT; UniProt Q13794 1-54, looked up, variant L29A L42A L43A L45A L49A)”, the “cell death-inducing activity of leucine substitution mutants 4Lmt, 5Lmt” value in the experiment on HeLa cells [1] was “almost completely lost all of the cell death-inducing activity”. The mitochondrial localization entry in the experiment with HeLa cells [2] is on record as “loss of Noxa mitochondrial localization”.

“L29A: Noxa single substitution in the BH3 domain (MPGKKARKNAQPSPARAPAELEVECATQARRFGDKLNFRQKLLNLISKLFCSGT; UniProt Q13794 1-54, looked up, variant L29A)”: the “cell death-inducing activity of Noxa point mutants” value in the experiment on HeLa cells [1] (HeLa cells) is listed as “remarkably reduced the cell death-inducing activities”.

With “4Lmt: Noxa mutant with L42A, L43A, L45A and L49A (MPGKKARKNAQPSPARAPAELEVECATQLRRFGDKLNFRQKAANAISKAFCSGT; UniProt Q13794 1-54, looked up, variant L42A L43A L45A L49A)”, the “cell death-inducing activity of leucine substitution mutants 4Lmt, 5Lmt” value in the experiment with HeLa cells [1] is “almost completely lost all of the cell death-inducing activity”. Also, the mitochondrial localization result with HeLa cells [2] was “loss of Noxa mitochondrial localization”.

Take “1-30: Noxa deletion mutant which did not contain any domains (MPGKKARKNAQPSPARAPAELEVECATQLR; UniProt Q13794 1-30, looked up, fragment)”: in the experiment with HeLa cells [1] (HeLa cells), the “cell death after over-expression” value was “no effect on cell death”. For the molecule “L43A (MPGKKARKNAQPSPARAPAELEVECATQLRRFGDKLNFRQKLANLISKLFCSGT; UniProt Q13794 1-54, looked up, variant L43A)”, the mitochondrial localization entry with HeLa cells [2] is “maintained the typical mitochondrial localization of Noxa”. For the molecule “3Lmt: Noxa triple substitution L45A, L49A and L29A (MPGKKARKNAQPSPARAPAELEVECATQARRFGDKLNFRQKLLNAISKAFCSGT; UniProt Q13794 1-54, looked up, variant L29A L45A L49A)”, the “cell death-inducing activity of Noxa point mutants” value in the experiment on HeLa cells [1] (HeLa cells) is on record as “remarkably reduced the cell death-inducing activities”.

For the molecule “21-40: Noxa deletion mutant containing only the BH3 domain (LEVECATQLRRFGDKLNFRQ; UniProt Q13794 21-40, looked up, fragment)”, the “cell death-inducing activity after over-expression, with increasing time” value with HeLa cells [1] (HeLa cells, 24 hrs and 36 hrs after transfection (FIG. 1D)) is reported as “strong cell death-inducing activity”. Besides, the “membrane morphology of transfected cells” value in the experiment with HeLa cells [1] (HeLa cells, data not shown) is on record as “membrane blebbings”. For the same molecule, the “cell death after over-expression” value with HeLa cells [1] (HeLa cells) was “induced little cell death within 11 hrs”. As for “RRRRRRRRGRQKLLNLIAALF (PTD-MTDmt4 fusion peptide derived from Homo sapiens)”, in the experiment with HeLa cells [3], the “cell death-inducing activity (% of cell death)” value was “maintaining the killing activity”. Moreover, in the experiment with HeLa cells [6], the caspase activation result is “not activated”.

B1: TRAIL (protein, UniProt P50591 1-281, looked up)
Tumor necrosis factor ligand …: MAMMEVQGGPSLGQTCVLIVIFTVLLQSLCVAVTYVYFTNELKQMQDKYSKSGIACFLKEDDSYWDPNDEESMNSPCWQVKWQLRQLVRKMILRTSEETISTVQEKQQNISPLVRERGPQRVAAHITGTRGRSNTLSSPNSKNEKALGRKINSWESSRSGHSFLSNLHLRNGELVIHEKGFYYIYSQTYFRFQEEIKENTKNDKQMVQYIYKYTSYPDPILLMKSARNSCWSKDAEYGLYSIYQGGIFELKENDRIFVSVTNEHLIDMDHEASFFGAFLVG
notes: apoptosis inducer used at 100 ng/ml for comparison
Regarding B1, the “morphology of dying cells” value in the experiment on HeLa cells [7] was “membrane shrinkage of apoptotic cells”.
